Consider 1 molecule from patent US8664277B2, “Compounds and methods for PKCθ inhibition” (Complegen Partners, LLC, priority 2008, dated 2014).

Molecules are shown by their SMILES. Read-outs that look alike come from different tables or passages of the source.

One experiment addresses T1, Human PKC theta (Homo sapiens, UniProt Q04759).
T1 construct: expressed in transfected cells; host or cells: yeast (XenoGene strain)
Nature of the experiment: XenoGene yeast growth inhibition, yeast containing human PKC theta gene. Type of experiment: cell-based. The source says: Using the XenoGene™ system described within, compounds inhibiting PKCθ are identified. The XenoGene™ system is a technology developed and patented by CompleGen wherein genes (“XenoGenes”™) from a target organism (e.g. humans) are used to functionally replace essential genes of a simple organism (yeast). These modified yeast are used to select compounds that act specifically on the protein encoded by the target gene and eliminate compounds that are not specific. […]

The next experiment has as its target T2, PKC delta (Homo sapiens, UniProt Q05655).
T2 construct: expressed in transfected cells; host or cells: yeast (XenoGene strain)
Nature of the experiment: XenoGene counter-screen, PKC delta. Type of experiment: cell-based. To be noted: inverse of (PKC-theta IC50)/(PKC-X IC50). As to the method: (§1) To identify compounds as being selective PKC theta inhibitors the IC50 values are determined against XenoGene™ strains containing other XenoGenes™, especially certain other PKC genes (see Example 10).
(§2) Human PKC theta gene (cDNA) was used to generate a XenoGene™ system as previously described (U.S. Pat. Nos. 6,998,261, 6,232,074), which was used to screen compounds in a chemical compound library. XenoGene™ systems used as counter-screens were constructed similarly using the gene for the appropriate counter-screen target. In particular, human genes (cDNA) encoding PKC delta, PKC eta and PKC epsilon were used to generate XenoGene™ systems.

Another experiment deals with T3, PKC eta (Homo sapiens, UniProt P24723).
T3 construct: expressed in transfected cells; host or cells: yeast (XenoGene strain)
T3 sequence (P24723 whole entry): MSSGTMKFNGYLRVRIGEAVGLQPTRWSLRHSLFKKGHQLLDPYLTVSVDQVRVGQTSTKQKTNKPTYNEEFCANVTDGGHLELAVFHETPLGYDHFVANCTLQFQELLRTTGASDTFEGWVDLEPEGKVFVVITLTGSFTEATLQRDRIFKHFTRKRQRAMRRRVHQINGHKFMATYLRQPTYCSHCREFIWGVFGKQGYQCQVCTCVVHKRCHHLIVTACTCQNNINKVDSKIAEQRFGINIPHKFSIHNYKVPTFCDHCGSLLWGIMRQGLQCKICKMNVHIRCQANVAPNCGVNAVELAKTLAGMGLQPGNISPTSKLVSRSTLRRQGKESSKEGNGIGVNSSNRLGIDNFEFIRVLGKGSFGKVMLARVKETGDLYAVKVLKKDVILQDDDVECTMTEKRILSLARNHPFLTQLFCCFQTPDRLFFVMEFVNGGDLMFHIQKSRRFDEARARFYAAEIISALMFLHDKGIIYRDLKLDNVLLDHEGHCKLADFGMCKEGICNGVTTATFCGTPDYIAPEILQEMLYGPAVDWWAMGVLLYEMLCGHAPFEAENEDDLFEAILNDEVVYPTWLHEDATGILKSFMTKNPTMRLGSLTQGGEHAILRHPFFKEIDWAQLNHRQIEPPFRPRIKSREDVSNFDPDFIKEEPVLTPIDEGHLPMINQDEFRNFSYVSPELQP
Nature of the experiment: XenoGene counter-screen, PKC eta. Type of experiment: cell-based. To be noted: inverse of (PKC-theta IC50)/(PKC-X IC50). As for the experimental part:
as §1, §2

For the next experiment, the target named is T4, yeast PKC1 (Saccharomyces cerevisiae, UniProt P24583).
T4 construct: endogenous in cells; host or cells: yeast control strain
T4 sequence (P24583 1-1151): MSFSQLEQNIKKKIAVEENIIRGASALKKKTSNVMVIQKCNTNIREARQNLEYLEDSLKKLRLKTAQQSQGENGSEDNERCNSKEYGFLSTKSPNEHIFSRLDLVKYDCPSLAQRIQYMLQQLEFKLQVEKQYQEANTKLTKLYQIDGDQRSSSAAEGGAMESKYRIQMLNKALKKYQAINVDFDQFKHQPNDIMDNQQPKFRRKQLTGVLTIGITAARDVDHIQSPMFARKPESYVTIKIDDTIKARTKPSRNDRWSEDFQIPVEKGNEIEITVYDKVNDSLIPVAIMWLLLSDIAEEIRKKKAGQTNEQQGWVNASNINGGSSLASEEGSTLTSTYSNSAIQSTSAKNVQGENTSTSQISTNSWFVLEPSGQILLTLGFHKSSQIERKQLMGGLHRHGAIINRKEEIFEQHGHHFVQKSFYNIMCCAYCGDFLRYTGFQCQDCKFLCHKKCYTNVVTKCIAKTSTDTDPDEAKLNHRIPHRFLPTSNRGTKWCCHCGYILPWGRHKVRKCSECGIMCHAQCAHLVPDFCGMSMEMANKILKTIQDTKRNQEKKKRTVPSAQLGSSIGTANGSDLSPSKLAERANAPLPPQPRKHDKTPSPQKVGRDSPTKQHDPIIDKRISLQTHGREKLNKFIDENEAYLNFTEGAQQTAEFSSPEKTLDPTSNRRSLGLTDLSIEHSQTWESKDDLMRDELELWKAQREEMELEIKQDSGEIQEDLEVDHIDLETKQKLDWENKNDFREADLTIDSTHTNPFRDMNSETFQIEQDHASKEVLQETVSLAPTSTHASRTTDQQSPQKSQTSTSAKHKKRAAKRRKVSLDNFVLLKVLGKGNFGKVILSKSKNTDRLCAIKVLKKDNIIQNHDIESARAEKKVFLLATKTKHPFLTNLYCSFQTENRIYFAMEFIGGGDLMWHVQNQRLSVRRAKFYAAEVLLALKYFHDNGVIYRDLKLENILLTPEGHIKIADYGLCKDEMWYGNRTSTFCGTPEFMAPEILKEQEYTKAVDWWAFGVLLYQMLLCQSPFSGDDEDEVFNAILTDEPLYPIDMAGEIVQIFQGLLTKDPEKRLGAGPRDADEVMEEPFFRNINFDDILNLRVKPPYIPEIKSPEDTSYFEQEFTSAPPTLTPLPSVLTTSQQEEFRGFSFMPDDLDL
The experiment in a line: XenoGene counter-screen, yeast PKC1. To be noted: inverse of (PKC-theta IC50)/(PKC-X IC50). The class given is cell-based.
Description: Using the XenoGene™ system described within, compounds inhibiting PKCθ are identified. The XenoGene™ system is a technology developed and patented by CompleGen wherein genes (“XenoGenes”™) from a target organism (e.g. humans) are used to functionally replace essential genes of a simple organism (yeast). These modified yeast are used to select compounds that act specifically on the protein encoded by the target gene and eliminate compounds that are not specific. XenoGene™ constructs provide a very high throughput screening system that allows identification of compounds active on the function of the target protein in a cell under physiological conditions on “first-pass” screening and further, to selectively counter-screen against 200 human targets or more if necessary. […] The relative potencies of the active compounds is determined by titration to find the concentration of compound providing 50% inhibition of growth (IC50) against the yeast containing the target gene (Table 1).
as §2

For a further experiment, the system named is T cell lymphomas. Nature of the experiment: Inhibition of T cell lymphomas, live cells counted by flow cytometry. The class given is cell-based, mouse. To be noted: for EC50: Mus musculus, T-cell, 96 h, 4 days growth. The source says:
The compounds of the present invention can also be screened for the ability to inhibit T cell lymphomas. Assays for inhibiting T cell lymphomas are known to one of skill in the art. In some embodiments, the assay involves mice generated from the nucleus of a mature T cell with a “fixed” rearranged T cell receptor. These T cells spontaneously generate T cell lymphomas which resemble human T cell lymphomas. T cell lymphomas isolated from the mice can then be treated with compounds of the present invention. After sufficient time to allow for cell growth, live cells are counted by flow cytometry (Serwold et al. (2007) J. Immunol. 179; 928). One of skill in the art will appreciate that other assays are useful in the present invention.
(§3) Mice generated from the nucleus of a mature T cell (see Hochedlinger K, Jaenisch R. (2002) Nature 415; 1035) with a “fixed” rearranged T cell receptor spontaneously generate T cell lymphomas which resemble human T cell lymphomas. Several T cell lymphomas (1-4) isolated from these mice were treated with compound 471. All T cell lymphomas were inhibited by compound 471. A B-cell hybridoma served as a non-T cell control and was not affected by the compound. Cells were seeded into 96-well plates (5,000 cells/well) in the presence of compound 471 at concentrations ranging from 0.1 to 5 uM. After 4 days growth (37° C., 5% CO2), live cells were counted by flow cytometry (Serwold et al. (2007) J. Immunol. 179; 928)

The subject of the next experiment is B-cell hybridoma. The experiment in a line: B-cell hybridoma non-T cell control, live cells counted by flow cytometry. Type of experiment: cell-based. As for the experimental part:
as §3

T1 sequence (Q04759 whole entry): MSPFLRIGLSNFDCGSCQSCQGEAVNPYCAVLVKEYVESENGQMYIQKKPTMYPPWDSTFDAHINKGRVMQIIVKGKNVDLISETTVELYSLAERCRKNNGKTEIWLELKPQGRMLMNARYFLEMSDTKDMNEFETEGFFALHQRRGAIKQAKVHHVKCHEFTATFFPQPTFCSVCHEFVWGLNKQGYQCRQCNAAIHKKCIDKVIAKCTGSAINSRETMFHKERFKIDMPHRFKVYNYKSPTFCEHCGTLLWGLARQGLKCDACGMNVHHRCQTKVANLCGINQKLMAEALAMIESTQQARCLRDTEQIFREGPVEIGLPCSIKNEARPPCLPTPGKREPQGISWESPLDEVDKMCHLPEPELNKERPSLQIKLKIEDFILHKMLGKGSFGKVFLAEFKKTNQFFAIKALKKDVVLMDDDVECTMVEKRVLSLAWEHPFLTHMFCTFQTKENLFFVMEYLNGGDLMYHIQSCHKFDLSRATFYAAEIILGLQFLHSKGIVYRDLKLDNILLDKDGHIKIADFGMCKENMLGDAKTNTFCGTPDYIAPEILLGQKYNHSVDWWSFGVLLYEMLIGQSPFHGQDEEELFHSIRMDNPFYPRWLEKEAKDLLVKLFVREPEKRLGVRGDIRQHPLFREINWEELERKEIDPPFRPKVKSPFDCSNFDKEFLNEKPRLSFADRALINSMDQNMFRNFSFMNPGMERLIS
T2 sequence (Q05655 whole entry): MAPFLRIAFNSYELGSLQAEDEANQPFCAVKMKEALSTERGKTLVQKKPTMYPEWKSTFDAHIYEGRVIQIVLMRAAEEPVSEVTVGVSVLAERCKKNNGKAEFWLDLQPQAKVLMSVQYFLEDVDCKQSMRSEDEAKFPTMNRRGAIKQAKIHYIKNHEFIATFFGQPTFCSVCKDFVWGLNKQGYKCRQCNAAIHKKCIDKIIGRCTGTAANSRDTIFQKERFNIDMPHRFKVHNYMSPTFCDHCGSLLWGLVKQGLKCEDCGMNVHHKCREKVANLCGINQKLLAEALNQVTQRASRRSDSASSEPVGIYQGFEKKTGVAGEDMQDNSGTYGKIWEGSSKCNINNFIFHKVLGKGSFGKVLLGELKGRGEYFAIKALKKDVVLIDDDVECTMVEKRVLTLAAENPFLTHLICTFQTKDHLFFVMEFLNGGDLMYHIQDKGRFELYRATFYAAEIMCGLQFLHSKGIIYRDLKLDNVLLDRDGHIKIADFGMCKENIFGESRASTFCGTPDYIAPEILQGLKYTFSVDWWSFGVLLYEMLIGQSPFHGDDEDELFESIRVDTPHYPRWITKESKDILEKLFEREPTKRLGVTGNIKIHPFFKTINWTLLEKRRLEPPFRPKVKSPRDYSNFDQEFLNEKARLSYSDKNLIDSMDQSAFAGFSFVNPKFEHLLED

Take `CC(C)(C)c1ccc(Oc2ccc(N)cc2)cc1` [Compound 471]: the IC50 at Human PKC theta (50% inhibition of growth of yeast containing the target gene, read-out: IC50) was less than 1000 nM; at Human PKC theta (XenoGene system, read-out: PKC-theta IC50), 140 nM. Further, the “Selectivity for PKC-theta v. PKC-delta” value on PKC delta worked out at 2.5. Also, the “Selectivity for PKC-theta v. PKC-eta” value at PKC eta was 0.36. For the same molecule, the “Selectivity for PKC-theta v. yeast PKC1” value at yeast PKC1 was determined as 28. In addition, the EC50 in the experiment on T cell lymphomas (Lymphoma 1) is 700 nM; in the experiment with T cell lymphomas (Lymphoma 2), 200 nM; with T cell lymphomas (Lymphoma 4), less than 100 nM; in the experiment on T cell lymphomas (Lymphoma 5), 700 nM; in the experiment with B-cell hybridoma (96 h, B-cell Hybridoma, 4 days growth), more than 5000 nM. Besides, the “Inhibition of T cell lymphomas” value with T cell lymphomas (all T cell lymphomas, 0.1 to 5 uM) was “inhibited”. In addition, the “Effect on B-cell hybridoma” value in the experiment on B-cell hybridoma (non-T cell control, 0.1 to 5 uM) is reported as “not affected”.
